This note sets out measurements from ChEMBL document CHEMBL5252509, “In depth analysis of kinase cross screening data to identify chemical starting points for inhibition of the Nek family of kinases” (Medchemcomm, 2018).

Each structure is given as a SMILES string.

Experiment [1] concerns the target Serine/threonine-protein kinase Nek7 (Homo sapiens) (UniProt Q8TDX7). Briefly: Inhibition of NEK7 (unknown origin) at 10 uM relative to control.
The target of experiment [2] is T1, Serine/threonine-protein kinase Nek1 (Homo sapiens) (UniProt Q96PY6).
T1 sequence (whole entry): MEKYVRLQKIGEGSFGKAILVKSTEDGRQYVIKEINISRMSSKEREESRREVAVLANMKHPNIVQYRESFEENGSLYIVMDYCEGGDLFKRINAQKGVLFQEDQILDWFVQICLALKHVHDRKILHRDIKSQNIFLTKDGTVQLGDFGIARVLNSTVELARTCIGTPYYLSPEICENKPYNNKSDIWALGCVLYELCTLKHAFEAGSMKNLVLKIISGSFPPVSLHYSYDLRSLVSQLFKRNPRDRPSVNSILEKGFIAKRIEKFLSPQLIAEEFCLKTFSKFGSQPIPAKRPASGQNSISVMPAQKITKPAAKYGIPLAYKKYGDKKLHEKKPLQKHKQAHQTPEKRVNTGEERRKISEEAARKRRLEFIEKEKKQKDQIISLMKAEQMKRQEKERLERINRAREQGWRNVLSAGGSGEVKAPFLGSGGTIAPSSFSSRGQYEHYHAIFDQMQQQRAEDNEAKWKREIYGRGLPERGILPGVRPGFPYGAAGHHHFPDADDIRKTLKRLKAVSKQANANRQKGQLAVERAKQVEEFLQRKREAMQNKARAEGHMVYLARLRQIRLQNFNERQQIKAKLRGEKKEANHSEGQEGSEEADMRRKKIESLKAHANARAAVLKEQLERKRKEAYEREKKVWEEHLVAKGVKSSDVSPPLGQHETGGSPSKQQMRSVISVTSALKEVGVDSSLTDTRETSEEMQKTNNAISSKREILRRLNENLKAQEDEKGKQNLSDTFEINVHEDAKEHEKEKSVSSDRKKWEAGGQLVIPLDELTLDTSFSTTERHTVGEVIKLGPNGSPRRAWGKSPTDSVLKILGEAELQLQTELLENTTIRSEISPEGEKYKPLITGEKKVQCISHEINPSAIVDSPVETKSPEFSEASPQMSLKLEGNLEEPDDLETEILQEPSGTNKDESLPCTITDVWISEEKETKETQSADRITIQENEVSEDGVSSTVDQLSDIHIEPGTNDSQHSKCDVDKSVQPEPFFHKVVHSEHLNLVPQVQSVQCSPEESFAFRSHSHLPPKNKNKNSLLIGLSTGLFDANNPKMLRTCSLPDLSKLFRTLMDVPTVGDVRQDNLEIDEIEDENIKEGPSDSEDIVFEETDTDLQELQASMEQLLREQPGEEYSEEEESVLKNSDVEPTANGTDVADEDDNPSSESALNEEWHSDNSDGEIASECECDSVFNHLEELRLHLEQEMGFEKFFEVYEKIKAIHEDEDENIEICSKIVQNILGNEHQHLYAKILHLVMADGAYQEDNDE
In words: Inhibition of NEK1 (unknown origin) at 10 uM relative to control.

Experiment [3] addresses T2, Serine/threonine-protein kinase Nek5 (Homo sapiens) (UniProt Q6P3R8).
T2 sequence (whole entry): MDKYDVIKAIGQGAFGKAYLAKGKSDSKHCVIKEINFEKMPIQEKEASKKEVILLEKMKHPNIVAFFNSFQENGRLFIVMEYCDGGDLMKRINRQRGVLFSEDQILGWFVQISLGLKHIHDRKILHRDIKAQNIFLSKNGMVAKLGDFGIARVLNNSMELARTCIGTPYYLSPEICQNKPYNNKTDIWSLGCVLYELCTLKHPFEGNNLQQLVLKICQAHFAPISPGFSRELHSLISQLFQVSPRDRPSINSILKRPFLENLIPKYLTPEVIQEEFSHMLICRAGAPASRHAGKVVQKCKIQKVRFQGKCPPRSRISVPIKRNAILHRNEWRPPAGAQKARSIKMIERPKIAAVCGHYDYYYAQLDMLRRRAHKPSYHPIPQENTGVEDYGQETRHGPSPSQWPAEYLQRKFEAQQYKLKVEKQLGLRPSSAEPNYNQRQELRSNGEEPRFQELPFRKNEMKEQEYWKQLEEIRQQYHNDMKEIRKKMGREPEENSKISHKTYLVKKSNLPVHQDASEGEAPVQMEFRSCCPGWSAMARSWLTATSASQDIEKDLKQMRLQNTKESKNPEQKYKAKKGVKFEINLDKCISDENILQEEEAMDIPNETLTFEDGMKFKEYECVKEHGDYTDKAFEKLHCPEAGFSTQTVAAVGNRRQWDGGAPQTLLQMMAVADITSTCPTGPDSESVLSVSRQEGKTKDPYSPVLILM
In words: Inhibition of NEK5 (unknown origin) at 10 uM relative to control.

Experiment [4] deals with T3, Serine/threonine-protein kinase Nek9 (Homo sapiens) (UniProt Q8TD19).
T3 sequence (whole entry): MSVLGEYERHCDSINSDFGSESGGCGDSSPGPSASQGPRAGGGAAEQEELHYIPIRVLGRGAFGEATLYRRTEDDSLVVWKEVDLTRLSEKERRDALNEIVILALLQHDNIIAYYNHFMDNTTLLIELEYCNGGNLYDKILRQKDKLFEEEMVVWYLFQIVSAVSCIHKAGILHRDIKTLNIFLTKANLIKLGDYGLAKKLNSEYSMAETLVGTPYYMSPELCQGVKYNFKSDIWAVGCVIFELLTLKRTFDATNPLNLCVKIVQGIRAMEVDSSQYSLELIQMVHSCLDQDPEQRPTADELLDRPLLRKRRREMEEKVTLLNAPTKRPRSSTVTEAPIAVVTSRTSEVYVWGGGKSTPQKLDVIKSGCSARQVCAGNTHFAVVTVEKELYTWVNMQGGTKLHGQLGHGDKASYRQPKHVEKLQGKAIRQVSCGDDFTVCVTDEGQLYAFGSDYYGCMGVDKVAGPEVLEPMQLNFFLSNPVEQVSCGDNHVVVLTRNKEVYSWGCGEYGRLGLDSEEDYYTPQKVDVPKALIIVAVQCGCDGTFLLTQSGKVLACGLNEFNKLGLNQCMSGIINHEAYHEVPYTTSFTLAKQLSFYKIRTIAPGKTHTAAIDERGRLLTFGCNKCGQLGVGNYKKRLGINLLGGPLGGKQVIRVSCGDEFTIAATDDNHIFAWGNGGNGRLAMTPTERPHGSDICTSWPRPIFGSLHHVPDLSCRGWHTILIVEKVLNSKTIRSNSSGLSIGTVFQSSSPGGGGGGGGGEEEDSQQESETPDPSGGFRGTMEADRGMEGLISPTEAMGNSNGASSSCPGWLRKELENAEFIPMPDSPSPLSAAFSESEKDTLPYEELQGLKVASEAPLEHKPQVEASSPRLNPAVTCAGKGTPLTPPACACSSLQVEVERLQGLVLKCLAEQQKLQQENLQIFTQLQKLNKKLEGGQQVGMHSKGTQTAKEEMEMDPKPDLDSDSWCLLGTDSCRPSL
Briefly: Inhibition of NEK9 (unknown origin) at 10 uM relative to control.

The target in experiment [5] is Serine/threonine-protein kinase Nek6 (Homo sapiens) (UniProt Q9HC98). In words: Inhibition of NEK6 (unknown origin) at 10 uM relative to control.
Chain of Serine/threonine-protein kinase Nek6 (Homo sapiens) (Q9HC98 whole entry): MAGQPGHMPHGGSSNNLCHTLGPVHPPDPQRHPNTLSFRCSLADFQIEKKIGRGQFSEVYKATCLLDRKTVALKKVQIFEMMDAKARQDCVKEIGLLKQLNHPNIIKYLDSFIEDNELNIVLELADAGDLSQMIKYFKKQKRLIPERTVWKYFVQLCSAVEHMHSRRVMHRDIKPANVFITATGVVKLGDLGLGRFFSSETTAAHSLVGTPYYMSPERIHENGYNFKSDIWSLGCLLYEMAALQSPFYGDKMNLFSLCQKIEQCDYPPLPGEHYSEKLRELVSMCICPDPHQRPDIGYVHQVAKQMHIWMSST

Chain of Serine/threonine-protein kinase Nek7 (Homo sapiens) (Q8TDX7 whole entry, looked up): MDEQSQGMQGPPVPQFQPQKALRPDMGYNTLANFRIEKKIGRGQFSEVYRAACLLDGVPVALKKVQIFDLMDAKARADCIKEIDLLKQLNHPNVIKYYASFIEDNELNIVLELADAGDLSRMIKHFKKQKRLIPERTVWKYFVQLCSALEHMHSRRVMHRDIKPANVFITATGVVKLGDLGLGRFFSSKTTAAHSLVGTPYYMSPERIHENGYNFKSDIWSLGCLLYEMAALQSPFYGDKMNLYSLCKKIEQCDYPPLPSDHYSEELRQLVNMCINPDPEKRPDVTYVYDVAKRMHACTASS

For the molecule `O=C1NC(=O)/C(=C/c2ccc3nccc(-c4ccncc4)c3c2)S1`, the % control in experiment [1] came out at 88%; in experiment [2], 47%; in experiment [3] it was 100%; in experiment [4], 95%; in experiment [5], 81%.
For the molecule `CN(C)C/C=C/C(=O)Nc1cccc(C(=O)Nc2ccc(Nc3nccc(-c4cccnc4)n3)cc2)c1`, the % control in experiment [1] came out at 7%; in experiment [2], 77%; in experiment [3] it was 7.8%; in experiment [4] it was 48%; in experiment [5], 17%.
On the same counts, the results for `Cc1cc(NC(=O)c2cccc(NC(=O)/C=C/CN(C)C)c2)ccc1Nc1nccc(-c2cccnc2)n1` are 100%, 81%, 92%, 100% and 100%.
As to `CN(C)C/C=C/C(=O)Nc1cccc(C(=O)Nc2ccc(Nc3nccc(-c4c(-c5ccccc5)nn5ccccc45)n3)cc2)c1`, the % control was 100% in experiment [1]; 100% in experiment [2]; 98% in experiment [3]; 100% in experiment [4]; 100% in experiment [5].
In the case of `Cc1ccc(NC(=O)c2ccc(NC(=O)/C=C/CN(C)C)cc2)cc1Nc1nccc(-c2cccnc2)n1`, the % control turned out to be 20% in experiment [1]; 100% in experiment [2]; 51% in experiment [3]; 100% in experiment [4]; 44% in experiment [5].
As for `Fc1cc(-c2cc[nH]/c(=N/c3ccc(-n4cnc(N5CCOCC5)n4)cc3)n2)cc(N2CCOCC2)c1`, the % control came to 45% in experiment [1]; 57% in experiment [2]; 1.4% in experiment [3]; 63% in experiment [4]; 76% in experiment [5].
For `CN(C)C/C=C/C(=O)Nc1ccc(C(=O)Nc2cccc(Nc3nccc(-c4cccnc4)n3)c2)cc1` the same measures were 9.8%, 63%, 2.2%, 22% and 2.8%.
As to `CN(C)C/C=C/C(=O)Nc1cccc(C(=O)Nc2ccc(Nc3nccc(/C(C#N)=C4\Nc5ccccc5S4)n3)cc2)c1`, the % control in experiment [1] came to 100%; in experiment [2] it was 100%; in experiment [3] it was 100%; in experiment [4], 63%; in experiment [5], 100%.
